{"source": "patent US20240240224A1", "about": "“FLUORESCENT D-TYPE AMINO ACID METABOLISM MARKER-BASED METHOD FOR DETECTING ANTIBACTERIAL DRUG SENSITIVITY TEST” (priority 2020, published 2024)", "test_system": "E. faecalis ATCC29212", "assay": "BMD susceptibility test", "assay_type": "cell-based, Enterococcus faecalis", "conditions": "unit assumed", "data": [{"smiles": "C[C@H]1COc2c(N3CCN(C)CC3)c(F)cc3c(=O)c(C(=O)O)cn1c23", "note": "[Levofloxacin, levofloxacin]", "values": [{"measurement": "BMD (MIC)", "value": 1, "unit": "µg/mL"}]}]}
